Experiments:
[1] = tested on: HIV-1IIIB; test: HIV-1 antiviral assay (CPE reduction, MTS) in CEM-SS cells; conditions: for antiviral activity of positive control compounds: HIV-1IIIB in CEM-SS cells; for reduction of cytopathic effect (CPE) in HIV-1 infected CEM-SS cells: 10 micrograms per ml, HIV-1IIIB, 6 days post-infection
[2] = tested on: hepatitis B virus (HBV) ayw strain; test: HBV replication assay in HepG2-2.2.15 cells (TaqMan PCR of secreted HBV DNA); type: cell-based; conditions: 10 micrograms per ml, six days
[3] = tested on: HUVEC; test: Endothelial tube formation assay; type: cell-based, human; conditions: 10 micrograms per ml; 20 hours
Experimental: The endothelial tube formation assay is based on the ability of endothelial cells to form three-dimensional capillary-like tubular structures when cultured on a gel of basement membrane extract. The endothelial tube formation assay represents a powerful model for studying inhibition and induction of angiogenesis. Pre-labeled HUVEC with Calcein AM were seeded in a 96-well culture plate coated with extracellular metrix (Chemicon international Cat. ECM625) and treated with test peptides—10 micrograms per ml—in full growth medium. Positive control wes vehicle only. The endothelial cells were allowed to form tubes foe 20 hours and were then examined under an inverted fluorescent microscope. Duplicate wells for each treatment were photographed and quantitatevily analyzed for an average tubule length using image analysis software ImageProPlus. Raw data were expressed as average tubule lenghs in pixels ± standard deviation. Statistic p values were computed using the Student's t-test.

[4] = tested on: murine spleen cells; test: Th1/Th2 cytokine profiling assay; type: cell-based, Balb/c mice; conditions: 10 micrograms per ml; Ovalbumin restimulation; 72 hours
Source text: The Balb/c mice (originated in 1923, it is a popular strain and is used in many different research disciplines. Also classified as an inbred from the production of 20 or more successive brother-sister matings, the Balb/c mouse is albino and small in size) were immunized on Days 1, 15, and 29 with Ovalbumin (Ovalbumin is the main protein found in egg white, commonly used to stimulate an immunological reaction in test animals) in PBS (5 micrograms/injection). On day 50, spleens of the mice were harvested (3 weeks after last boost with Ovalbumin). […] Thereafter, additional Ovalbumin was added to the cells at 10 micrograms/ml for in vitro restimulation of the cells. 72 hours later, cell supernatants were harvested and assayed using the Becton Dickinson Mouse Th1/Th2 Cytokine CBA Kit. This kit can be used to measure Interleukin-2 (IL-2), Interleukin-4 (IL-4), Interleukin-5 (IL-5), Interferon-γ(IFN-γ), and Tumor Necrosis Factor-α (TNF-α) protein levels in a single sample. The kit performance has been optimized for analysis of physiologically relevant concentrations (pg/ml levels) of specific cytokine proteins in tissue culture supernatants and serum samples.

[5] = tested on: HCMV strain AD169; test: HCMV plaque formation assay in MRC-5 cells; conditions: for inhibition of HCMV plaque formation as compared to the virus control experiment: 10 micrograms per ml, MRC-5 cells, 7-10 days
[6] = tested on: Primary Human endothelial cells (HUVEC); test: Endothelial cell migration assay; type: cell-based; conditions: 10 micrograms per ml; 22 hours
Experimental: Primary Human endothelial cells (HUVEC) were seeded in insert chambers with 3 micrometer pore size of multi-transwell plate for 6 hours at 37° C. in Endothelial Cell Basal Medium (EBM) supplemented with 0.1% bovine serum albumin. Thereafter, designated concentration of testing peptides—10 micrograms per ml—was added in duplicate wells. The endothelia were allowed to migrate for 22 hours at 37° C., then, migrated cells were fixed and stained with Hoechst 33342 dye. Images of 3 fields per insert were taken and the number of migrated cells per field were quantified using the ImageProPlus software. Data were analyzed for the average number of the migrated cells and standard deviation of six data points for each treatment condition. Active test peptides against HUVEC migration was determined based on 50% inhibition of migrated cells as compared with the control. Statistic p values were computed using the Student's t-test.

Row | Compound | antiviral activity of positive control compounds [1] | inhibition of HBV replication as compared to the virus control infection [2] | inhibition of the tube formation of human endothelial cells [3] | reduction of cytopathic effect (CPE) in HIV-1 infected CEM-SS cells [1] | change of the production of IL-5 [4] | change of the production of TNF-alpha [4] | inhibition of HCMV plaque formation as compared to the virus control experiment [5] | inhibition of the migration of human endothelial cells [6] | also measured
1 | Cc1cn([C@H]2C[C@H](N=[N+]=[N-])[C@@H](CO)O2)c(=O)[nH]c1=O [AZT, reference compound] | expected levels of antiviral activity | – | – | – | – | – | – | – | –
2 | CC(C)(C)NC(=O)[C@@H]1CN(Cc2cccnc2)CCN1C[C@@H](O)C[C@@H](Cc1ccccc1)C(=O)N[C@H]1c2ccccc2C[C@H]1O [indinavir, reference compound] | expected levels of antiviral activity | – | – | – | – | – | – | – | –
3 | Glu-Ala-Glu-Asp-Leu-Gln-Val-Gly-Gln-Val-Glu-Leu-Gly-Gly-Gly-Pro-Gly-Ala-Gly-Ser-Leu-Gln-Pro-Leu-Ala-Leu-Glu-Gly-Ser-Leu-Gln-OH (EAEDLQVGQVELGGGPGAGSLQPLALEGSLQ; printed: Glu-Ala-Glu-Asp-Leu-Gln-Val-Gly-Gln-Val-Glu-Leu-Gly-Gly-Gly-Pro-Gly-Ala-Gly-Ser-Leu-Gln-Pro-Leu-Ala-Leu-Glu-Gly-Ser-Leu-Gln-) [Peptide 1] | – | 13.6% | 19% | 93.6% | did not significantly change | did not significantly change | did not inhibit | 29% | change of the production of IFN-gamma [4]: did not significantly change; induction of the production of IL-2 [4]: 24.6%; induction of the production of IL-4 [4]: 34.7%
4 | His-Ala-Glu-Gly-Thr-Phe-Thr-Ser-Asp-Val-Ser-Ser-Tyr-Leu-Glu-Gly-Gln-Ala-Ala-Lys-Glu-Phe-Ile-Ala-Trp-Leu-Val-Lys-Gly-Arg-NH2 [Peptide 2] | – | 37.2% | 1% | 61.1% | did not significantly change | did not significantly change | 2.9% | 6% | decrease of the production of IFN-gamma [4]: 39.7%; decrease of the production of IL-2 [4]: 45.7%; decrease of the production of IL-4 [4]: 70.9%
5 | Nc1nc(O)c2ncn(COC(CO)CO)c2n1 [Ganciclovir, reference compound] | – | – | – | – | – | – | – | – | antiviral activity of positive control compound ([5]; HCMV in MRC-5 cells): expected levels of antiviral activity

From US20100292132A1, “USE OF INSULIN C-PEPTIDE, ALONE OR IN COMBINATION WITH GLP-1, AS A THERAPEUTIC AGENT” (priority 2007, published 2010)
